{"source": "patent US20100221823A1", "about": "“METHOD FOR CULTURING MAMMALIAN CELLS TO IMPROVE RECOMBINANT PROTEIN PRODUCTION” (Amgen Inc., priority 2007, published 2010)", "key": {"[1]": {"tested_on": "CHO cell line producing a recombinant IgG2 monoclonal antibody", "assay": "Batch culture in serum-free DMEM/F12 with supplemental polyamines: viable cell density and viability", "assay_type": "cell-based, Chinese hamster", "settings": "3 days; for Culture viability versus cells without supplemental polyamines (FIG. 1b) / Viable cell density versus basal DMEM/F12 media (FIG. 1a): supplemental polyamine", "experimental": "To test the effect of high concentration polyamine media formulations on cell culture performance a CHO cell line producing a recombinant IgG2 monoclonal antibody was seeded at 2.5×10^5 cells/ml in serum-free DMEM/F12 (SAFC, Lenexa, Kans.). DMEM/F12 contains 503 nM putrescine as a component of the commercial formulation. […] Cells were maintained in suspension culture for three days at 36° C. in 5% CO2. Total cell density and viable cell density were measured using a Guava Easy-Cyte™ flow cytometer and Guava Viacount® Flex reagent (Hayward, Calif.) according to manufacture's instructions.\nFollowing three days culture in the polyamine-supplemented-DMEM/F12 media, viable cell density and culture viability were measured, see FIGS. 1a and 1b. Mean viability is presented as percent of viable cells and viable cell density is presented as number of cells/ml."}, "[2]": {"tested_on": "Human-human hybridoma HB4C5 cells", "settings": "spermine 2.4 mM or higher; increased over the control; cited from earlier work"}, "[3]": {"tested_on": "CHO cell line producing a recombinant IgG2 monoclonal antibody", "settings": "6 days, VM-Soy", "experimental": "VM-Soy basal media contains 0.98 μM (0.1620 mg/l) putrescine as a component of its formulation. […] Cells were seeded at 2.5×10^5 cells/ml and maintained for six days at 36° C. in 5% CO2. Viable cell density and cell viability were measured as described above.\nAntibody titer was measured by immunoturbidietric analysis using a Poly-Chem® analyzer and High Sensitivity IgG reagents (Polymedco, Cortlandt Manor, N.Y.) according to the manufacturer's instructions."}, "[4]": {"tested_on": "CHO cell line producing a recombinant IgG1 monoclonal antibody", "settings": "fed-batch", "experimental": "The medium was an enriched formulation of DMEM/F12 that was less concentrated than the media used in Example 3. The medium already contained putrescine at 0.014 mM. […] Cells were maintained in suspension culture for 8 days at 36° C., 5% CO2. Cultures were fed a rich medium on the fourth day of culture. […] The feed volume was equal to seven percent of the initial batch culture volume. The feed medium contained putrescine and delivered 0.0019 mM putrescine to the cultures as a result of each feed. Glucose was also fed on the fourth day of culture in order to prevent depletion. Viable cell density and cell viability were measured as described above.\nAntibody titer was measured by immunoturbidimetric analysis using a Poly-Chem® analyzer and High Sensitivity IgG reagents (Polymedco, Cortlandt Manor, N.Y.) according to the manufacturer's instructions."}, "[5]": {"tested_on": "four different recombinant monoclonal IgG2 antibody-producing CHO cell lines", "settings": "fed-batch, 10 μM spermine", "experimental": "The medium was an enriched formulation of DMEM/F12 medium (ingredients supplied by SAFC, Lenexa, Kans.). The medium contained putrescine at a concentration of 0.014 mM. […] Cells were maintained in suspension culture for 11 days at 36° C., 5% CO2. Cultures were fed an enriched feed medium on the fourth, seventh, and ninth days of culture. The feed volume was equal to nine percent of the initial batch culture volume. […] Glucose was also fed on the fourth, seventh, and ninth days of culture in order to prevent depletion. Viable cell density and cell viability were measured as described above.\nThe titer of the antibodies produced in cell culture was determined using POROS® (Applied Biosystems) Protein A chromotagraphy HPLC chromotagraphy."}}, "data": [{"molecule": "Cl.Cl.NCCCCN", "note": "[putrescine, putrescine dihydrochloride]", "values": [{"measurement": "Culture viability versus cells without supplemental polyamines (FIG. 1b)", "setting": "[1]", "value": "higher"}, {"measurement": "Viable cell density versus basal DMEM/F12 media (FIG. 1a)", "setting": "[1]", "value": "higher"}]}, {"molecule": "NCCCCNCCCN", "note": "[spermidine, spermidine tetrachdrochloride]", "values": [{"measurement": "Culture viability versus cells without supplemental polyamines (FIG. 1b)", "setting": "[1]", "value": "higher"}, {"measurement": "Viable cell density versus basal DMEM/F12 media (FIG. 1a)", "setting": "[1]", "value": "higher"}]}, {"molecule": "Cl.Cl.Cl.Cl.NCCCNCCCCNCCCN", "note": "[spermine, spermine tetrahydrochloride]", "values": [{"measurement": "Protein production", "setting": "[2]", "value": "less than 1 mg/l"}, {"measurement": "Spermine concentration giving the greatest increase in antibody concentration (FIG. 2c)", "setting": "[3]", "value": 50, "unit": "µM"}, {"measurement": "Spermine concentration giving the greatest increase in viable cell density (FIG. 2a)", "setting": "[3]", "value": 50, "unit": "µM"}, {"measurement": "Antibody titer increase (greatest)", "setting": "[3]; 50 μM spermine", "value": 9, "unit": "%"}, {"measurement": "Cell viability increase (greatest)", "setting": "[3]; 50 μM spermine", "value": 29, "unit": "%"}, {"measurement": "Viable cell density increase (greatest)", "setting": "[3]; 50 μM spermine", "value": 23, "unit": "%"}, {"measurement": "Antibody titer increase compared to the untreated control", "setting": "[3]; 10-200 μM spermine", "value": "5-9%"}, {"measurement": "Cell viability increase compared to the unsupplemented control", "setting": "[3]; 10-200 μM spermine", "value": "22-29%"}, {"measurement": "Viable cell density increase compared to the unsupplemented control", "setting": "[3]; 10-200 μM spermine", "value": "8-23%"}, {"measurement": "Effect of spermine concentration on titer", "setting": "[4]; 0.1-500 μM spermine", "value": "dose-dependent response"}, {"measurement": "Viable cell density versus control (FIGS. 4a and 4b)", "setting": "[4]; 8 days, 0.1-500 μM spermine", "value": "greater"}, {"measurement": "Antibody titer increase compared to the untreated controls (FIG. 4d)", "setting": "[4]; Day 8, 0.1-500 μM spermine", "value": "7-17%"}, {"measurement": "Ending cell viability (FIG. 4c)", "setting": "[4]; Day 8, 5-50 μM spermine", "value": "increased"}, {"measurement": "Antibody titer increase compared to the untreated controls (FIG. 3c)", "setting": "[5]; range over four cell lines", "value": "7-17%"}, {"measurement": "Cell viability versus control without spermine (FIG. 3b)", "setting": "[5]; 11 days", "value": "largely unaffected"}, {"measurement": "Viable cell density versus control without spermine (FIG. 3a)", "setting": "[5]; 11 days", "value": "greater"}, {"measurement": "Spermine concentration giving the greatest increase in cell viability (FIG. 1b)", "setting": "[1]; DMEM/F12", "value": 50, "unit": "µM"}, {"measurement": "Cell viability increase compared to unsupplemented control media", "setting": "[1]; DMEM/F12, 10-50 μM spermine", "value": "up to 20%"}, {"measurement": "Viable cell density increase compared to unsupplemented control media", "setting": "[1]; DMEM/F12, 10-50 μM spermine", "value": "up to 49%"}, {"measurement": "Culture viability versus cells without supplemental polyamines (FIG. 1b)", "setting": "[1]", "value": "higher"}, {"measurement": "Viable cell density versus basal DMEM/F12 media (FIG. 1a)", "setting": "[1]", "value": "higher"}]}]}
